The record followed here is ChEMBL document CHEMBL5696442, “Discovery of type II inhibitors of TGFβ-activated kinase 1 (TAK1) and mitogen-activated protein kinase kinase kinase kinase 2 (MAP4K2)” (J Med Chem, 2015).

Assay [1] relates to Epidermal growth factor receptor (Homo sapiens), P00533 [G719C]. The assay can be described thus: Inhibition of EGFR G719C mutant (unknown origin) at 1 uM by Ambit Kinomescan binding assay relative to control.
Assay [2] deals with Epidermal growth factor receptor (Homo sapiens), P00533 [UNDEFINED MUTATION]. In words: Inhibition of EGFR S752-I759del mutant (unknown origin) at 1 uM by Ambit Kinomescan binding assay relative to control.
Chain of Epidermal growth factor receptor (Homo sapiens), P00533 [UNDEFINED MUTATION] (P00533 whole entry, looked up, stated change not applied): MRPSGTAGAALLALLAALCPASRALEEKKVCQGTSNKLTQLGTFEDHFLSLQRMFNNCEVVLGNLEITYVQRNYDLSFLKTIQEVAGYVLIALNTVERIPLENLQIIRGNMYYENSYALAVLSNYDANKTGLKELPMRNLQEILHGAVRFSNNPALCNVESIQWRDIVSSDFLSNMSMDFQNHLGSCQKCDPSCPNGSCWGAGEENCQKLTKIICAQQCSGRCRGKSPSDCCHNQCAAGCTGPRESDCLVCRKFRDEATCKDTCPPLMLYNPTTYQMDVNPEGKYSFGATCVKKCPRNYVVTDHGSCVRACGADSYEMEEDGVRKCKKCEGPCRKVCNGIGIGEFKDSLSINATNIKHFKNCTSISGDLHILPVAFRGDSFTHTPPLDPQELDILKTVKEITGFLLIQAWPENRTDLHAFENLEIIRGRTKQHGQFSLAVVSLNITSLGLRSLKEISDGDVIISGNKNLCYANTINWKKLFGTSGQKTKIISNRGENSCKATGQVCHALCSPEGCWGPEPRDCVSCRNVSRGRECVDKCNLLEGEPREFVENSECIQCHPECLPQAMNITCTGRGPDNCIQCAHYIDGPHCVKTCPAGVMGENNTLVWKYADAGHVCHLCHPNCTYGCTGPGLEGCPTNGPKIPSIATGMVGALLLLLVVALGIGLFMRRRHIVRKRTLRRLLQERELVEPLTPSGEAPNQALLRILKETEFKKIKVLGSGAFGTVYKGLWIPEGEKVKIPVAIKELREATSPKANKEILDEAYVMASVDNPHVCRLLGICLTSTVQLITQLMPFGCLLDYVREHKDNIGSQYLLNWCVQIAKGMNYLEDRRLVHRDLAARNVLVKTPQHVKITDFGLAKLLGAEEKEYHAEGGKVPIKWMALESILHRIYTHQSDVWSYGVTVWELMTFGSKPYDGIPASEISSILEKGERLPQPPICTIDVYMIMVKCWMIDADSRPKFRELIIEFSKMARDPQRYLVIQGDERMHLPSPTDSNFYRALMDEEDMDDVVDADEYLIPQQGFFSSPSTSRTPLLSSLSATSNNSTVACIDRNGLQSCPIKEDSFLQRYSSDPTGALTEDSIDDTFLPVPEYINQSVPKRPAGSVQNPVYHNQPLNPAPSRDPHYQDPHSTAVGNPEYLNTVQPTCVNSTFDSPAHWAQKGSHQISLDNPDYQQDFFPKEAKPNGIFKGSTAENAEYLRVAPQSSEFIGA
The target of assay [3] is RAC-gamma serine/threonine-protein kinase (Homo sapiens) (UniProt Q9Y243). The assay can be described thus: Inhibition of AKT3 ATP Loop labeling site in human A-375 cells at 5 uM by KiNativ Profiling analysis relative to control. In kind it is cell-based.
Chain of RAC-gamma serine/threonine-protein kinase (Homo sapiens) (Q9Y243 whole entry, canonical isoform): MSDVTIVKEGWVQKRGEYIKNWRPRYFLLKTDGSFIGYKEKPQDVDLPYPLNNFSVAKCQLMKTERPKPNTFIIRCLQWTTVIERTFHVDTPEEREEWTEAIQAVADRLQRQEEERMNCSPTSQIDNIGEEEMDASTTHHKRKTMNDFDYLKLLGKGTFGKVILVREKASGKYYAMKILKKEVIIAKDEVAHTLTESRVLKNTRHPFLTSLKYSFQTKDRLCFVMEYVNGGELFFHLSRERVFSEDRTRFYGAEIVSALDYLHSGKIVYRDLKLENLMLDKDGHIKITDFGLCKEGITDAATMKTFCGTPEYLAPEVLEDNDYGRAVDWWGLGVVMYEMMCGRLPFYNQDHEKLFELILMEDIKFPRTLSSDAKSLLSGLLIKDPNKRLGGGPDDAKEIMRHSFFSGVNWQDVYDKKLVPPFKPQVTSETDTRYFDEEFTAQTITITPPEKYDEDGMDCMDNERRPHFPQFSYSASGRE
In assay [4] the target is T1, Phosphatidylinositol 4,5-bisphosphate 3-kinase catalytic subunit delta isoform (Homo sapiens) (UniProt O00329).
T1 sequence (whole entry): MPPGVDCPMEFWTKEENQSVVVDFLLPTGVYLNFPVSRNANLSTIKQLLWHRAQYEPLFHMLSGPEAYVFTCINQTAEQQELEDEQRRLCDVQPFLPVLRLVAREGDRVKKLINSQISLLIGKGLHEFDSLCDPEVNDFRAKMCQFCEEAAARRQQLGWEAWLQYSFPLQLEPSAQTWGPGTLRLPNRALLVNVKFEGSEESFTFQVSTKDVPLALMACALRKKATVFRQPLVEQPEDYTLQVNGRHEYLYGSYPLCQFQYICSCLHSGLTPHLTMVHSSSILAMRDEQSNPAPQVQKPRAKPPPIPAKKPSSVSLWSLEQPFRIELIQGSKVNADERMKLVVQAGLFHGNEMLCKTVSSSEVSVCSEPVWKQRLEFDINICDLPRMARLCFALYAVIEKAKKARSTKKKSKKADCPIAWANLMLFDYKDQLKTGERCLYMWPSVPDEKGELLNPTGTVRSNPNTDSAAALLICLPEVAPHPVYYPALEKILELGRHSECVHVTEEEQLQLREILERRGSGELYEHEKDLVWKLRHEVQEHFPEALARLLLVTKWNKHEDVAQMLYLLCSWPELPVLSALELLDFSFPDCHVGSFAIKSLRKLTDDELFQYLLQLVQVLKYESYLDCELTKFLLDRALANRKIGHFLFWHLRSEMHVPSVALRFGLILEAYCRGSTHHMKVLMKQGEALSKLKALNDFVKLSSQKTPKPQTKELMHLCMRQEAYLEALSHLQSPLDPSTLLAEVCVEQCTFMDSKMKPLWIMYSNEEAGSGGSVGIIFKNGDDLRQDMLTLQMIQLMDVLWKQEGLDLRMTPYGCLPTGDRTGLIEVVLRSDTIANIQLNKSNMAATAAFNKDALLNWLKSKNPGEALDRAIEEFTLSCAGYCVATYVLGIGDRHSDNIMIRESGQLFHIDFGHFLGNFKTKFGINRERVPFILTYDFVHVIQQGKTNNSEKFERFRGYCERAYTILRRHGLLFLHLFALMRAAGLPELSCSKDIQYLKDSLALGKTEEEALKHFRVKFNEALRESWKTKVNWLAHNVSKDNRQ
The assay can be described thus: Inhibition of PIK3CD ATP labeling site in human A-375 cells at 0.5 uM by KiNativ Profiling analysis relative to control. Format: cell-based.

Assay [5] concerns the target Serine/threonine-protein kinase PAK 1 (Homo sapiens) (UniProt Q13153). In words: Inhibition of PAK1 (unknown origin) at 1 uM by Ambit Kinomescan binding assay relative to control; values are per cent of control.
Assay [6] addresses T2, Phosphorylase b kinase gamma catalytic chain, liver/testis isoform (Homo sapiens) (UniProt P15735).
T2 sequence (whole entry): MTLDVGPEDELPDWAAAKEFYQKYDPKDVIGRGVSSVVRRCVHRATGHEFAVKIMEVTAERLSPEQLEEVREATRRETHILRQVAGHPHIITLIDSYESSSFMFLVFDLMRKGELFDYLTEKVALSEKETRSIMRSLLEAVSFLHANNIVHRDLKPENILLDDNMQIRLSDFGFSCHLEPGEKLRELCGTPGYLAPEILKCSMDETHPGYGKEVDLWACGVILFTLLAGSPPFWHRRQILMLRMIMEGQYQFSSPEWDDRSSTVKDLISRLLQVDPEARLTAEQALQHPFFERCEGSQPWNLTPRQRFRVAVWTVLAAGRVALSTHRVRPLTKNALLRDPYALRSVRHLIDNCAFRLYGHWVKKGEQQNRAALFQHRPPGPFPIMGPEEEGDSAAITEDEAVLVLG
In words: Inhibition of PHKG2 (unknown origin) at 1 uM by Ambit Kinomescan binding assay relative to control; values are per cent of control.

Assay [7] addresses Calcium/calmodulin-dependent protein kinase type II subunit delta (Homo sapiens) (UniProt Q13557). The assay can be described thus: Inhibition of CAMK2d K1 labeling site in human Huh-7 cells at 10 uM by KiNativ Profiling analysis relative to control. Format: cell-based.

Chain of Serine/threonine-protein kinase PAK 1 (Homo sapiens) (Q13153 whole entry, looked up, canonical isoform): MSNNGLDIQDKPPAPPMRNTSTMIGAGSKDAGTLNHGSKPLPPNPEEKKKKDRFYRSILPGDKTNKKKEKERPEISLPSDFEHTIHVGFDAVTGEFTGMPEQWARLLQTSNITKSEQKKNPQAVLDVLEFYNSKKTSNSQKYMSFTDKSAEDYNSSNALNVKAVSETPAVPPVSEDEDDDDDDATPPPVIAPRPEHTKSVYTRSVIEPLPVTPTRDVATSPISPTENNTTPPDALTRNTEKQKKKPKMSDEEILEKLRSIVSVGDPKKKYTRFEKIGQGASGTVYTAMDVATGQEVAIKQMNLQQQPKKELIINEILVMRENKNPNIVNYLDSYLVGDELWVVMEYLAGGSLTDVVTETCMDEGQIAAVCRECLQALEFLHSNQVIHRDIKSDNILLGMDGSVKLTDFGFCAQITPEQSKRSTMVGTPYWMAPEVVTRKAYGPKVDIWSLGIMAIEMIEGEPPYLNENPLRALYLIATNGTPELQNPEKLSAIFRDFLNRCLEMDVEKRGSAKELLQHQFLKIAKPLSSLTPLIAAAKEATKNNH
Chain of Epidermal growth factor receptor (Homo sapiens), P00533 [G719C] (P00533 whole entry G719C): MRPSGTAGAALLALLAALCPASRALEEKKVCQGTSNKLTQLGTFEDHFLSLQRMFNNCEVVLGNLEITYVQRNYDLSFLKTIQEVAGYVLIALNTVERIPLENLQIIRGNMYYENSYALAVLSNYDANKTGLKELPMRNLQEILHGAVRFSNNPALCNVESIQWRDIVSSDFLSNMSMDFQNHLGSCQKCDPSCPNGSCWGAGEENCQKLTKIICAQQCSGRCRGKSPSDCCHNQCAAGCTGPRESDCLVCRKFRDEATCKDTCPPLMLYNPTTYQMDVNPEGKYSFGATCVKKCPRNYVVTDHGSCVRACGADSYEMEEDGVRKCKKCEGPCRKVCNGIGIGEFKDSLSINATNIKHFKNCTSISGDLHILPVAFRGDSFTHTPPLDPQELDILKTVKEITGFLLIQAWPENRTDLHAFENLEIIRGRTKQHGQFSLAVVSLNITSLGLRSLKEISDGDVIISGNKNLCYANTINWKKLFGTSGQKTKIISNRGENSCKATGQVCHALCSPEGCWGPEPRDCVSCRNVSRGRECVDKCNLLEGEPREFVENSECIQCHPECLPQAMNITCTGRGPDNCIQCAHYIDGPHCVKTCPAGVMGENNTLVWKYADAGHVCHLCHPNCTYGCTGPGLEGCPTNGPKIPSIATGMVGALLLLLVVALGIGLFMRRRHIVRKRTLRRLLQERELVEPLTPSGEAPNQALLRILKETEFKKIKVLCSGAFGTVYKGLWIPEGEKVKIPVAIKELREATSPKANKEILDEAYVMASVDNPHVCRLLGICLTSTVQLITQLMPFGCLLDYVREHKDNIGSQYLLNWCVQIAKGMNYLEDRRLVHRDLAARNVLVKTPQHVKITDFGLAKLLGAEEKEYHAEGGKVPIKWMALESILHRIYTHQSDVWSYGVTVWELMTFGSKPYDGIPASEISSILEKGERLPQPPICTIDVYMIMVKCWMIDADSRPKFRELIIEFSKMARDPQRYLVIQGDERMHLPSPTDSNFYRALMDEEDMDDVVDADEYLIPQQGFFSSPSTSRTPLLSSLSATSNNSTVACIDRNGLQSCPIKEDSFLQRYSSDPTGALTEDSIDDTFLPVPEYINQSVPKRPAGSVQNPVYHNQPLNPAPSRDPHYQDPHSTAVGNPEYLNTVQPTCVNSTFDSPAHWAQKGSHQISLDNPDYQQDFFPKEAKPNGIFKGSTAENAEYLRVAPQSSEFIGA
Chain of Calcium/calmodulin-dependent protein kinase type II subunit delta (Homo sapiens) (Q13557 whole entry): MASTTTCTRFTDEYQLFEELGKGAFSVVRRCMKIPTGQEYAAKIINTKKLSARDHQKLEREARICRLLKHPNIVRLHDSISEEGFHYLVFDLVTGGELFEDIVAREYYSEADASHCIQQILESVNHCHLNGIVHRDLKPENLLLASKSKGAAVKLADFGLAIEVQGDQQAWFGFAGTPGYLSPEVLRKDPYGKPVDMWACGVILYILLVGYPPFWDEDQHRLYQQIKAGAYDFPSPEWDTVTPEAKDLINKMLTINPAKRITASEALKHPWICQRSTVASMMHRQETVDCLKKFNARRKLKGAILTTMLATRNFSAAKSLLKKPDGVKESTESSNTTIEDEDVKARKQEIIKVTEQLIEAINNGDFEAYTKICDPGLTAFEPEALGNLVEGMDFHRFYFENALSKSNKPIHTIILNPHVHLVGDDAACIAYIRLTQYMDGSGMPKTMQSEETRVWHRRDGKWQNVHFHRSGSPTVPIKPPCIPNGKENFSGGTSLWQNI

As for `CCN1CCN(Cc2ccc(NC(=O)c3ccc(C)c(/C=C/c4cnc5[nH]ccc5c4OC)c3)cc2C(F)(F)F)CC1`, the inhibition (as a rule, the drop in the measured response relative to a control, in per cent) in assay [1] stood at 0.45%; in assay [2], 1.4%; in assay [3], 13.3%; in assay [4] it was 4.2%. Besides, the residual activity in assay [5] and in assay [6] was 100% in each case.

As to `CCN1CCN(Cc2ccc(NC(=O)c3ccc(C)c(Oc4ccnc5[nH]ccc45)c3)cc2C(F)(F)F)CC1`, the inhibition in assay [7] was 0.1%.
